From patent US12134604B1, “1-[4,5-bis(4-chlorophenyl)-1-hexyl-1H-imidazol-2-yl]-2-naphthol as an antimicrobial compound” (KING FAISAL UNIVERSITY, priority 2023, dated 2024)

Tests used:
Type in all cases: cell-based
Conditions in all cases: after 10, 20, 40 and 60 minutes at all dilutions 1:100, 1:200, 1:400, 1:800 (summary in words)
Candida albicans = assay: Antimicrobial (antifungal) screening by agar dilution, Candida albicans
Description: (§1) The antimicrobial properties of the 1-[4,5-bis(4-chlorophenyl)-1-hexyl-1H-imidazol-2-yl]-2-naphthol was studied by the method of agar dilution. Test solutions of each compound was prepared in concentration of 1% using dimethylformamide as a solvent then they are diluted in physiological solution to obtain the final experimental dilutions 1:100, 1:200, 1:400, 1:800. The effect of these substances are compared with furacillin in a controlled study. The testing microbes used were gram positive bacteria Staphylococcus aureus, gram negative bacteria Pseudomonas aeruginosa and Escherichia coli and Candida albicans fungi were taken. The experiments used for this survey were meat-pentonlu agar (EPA) for cultivation of bacteria and Saburo environment for fungi. Each experiment used 1 ml of test solution on each plate 500 min. Add 2 drops of emulsified with microbes feel. All experimental samples were taken from the agar after 10, 20, 40, 60 minutes in the environment on the basis of Patrk planted. Bacteria were cultivated at a temperature of 37° C. for 1 day and the mushroom was kept in a thermostat for […] at a temperature of 28° C. in the. Then results were checked.

Escherichia coli = assay: Antimicrobial screening by agar dilution, Escherichia coli
Description: as §1

Pseudomonas aeruginosa = assay: Antimicrobial screening by agar dilution, Pseudomonas aeruginosa
Description: as §1

Staphylococcus aureus = assay: Antimicrobial screening by agar dilution, Staphylococcus aureus
Description: as §1

Measured: inhibition activity

CCCCCCn1c(-c2c(O)ccc3ccccc23)nc(-c2ccc(Cl)cc2)c1-c1ccc(Cl)cc1 [1-[4,5-bis(4-chlorophenyl)-1-hexyl-1H-imidazol-2-yl]-2-naphthol]
highest inhibition activity: Candida albicans | Escherichia coli | Pseudomonas aeruginosa | Staphylococcus aureus
